Measurements: ChEMBL document CHEMBL4371009, “Polypharmacology by Design: A Medicinal Chemist's Perspective on Multitargeting Compounds” (J Med Chem, 2019)

Experiments:
D(4) dopamine receptor = target: T1, D(4) dopamine receptor (Homo sapiens, UniProt P21917); experiment: Displacement of [3H]-N-methylspiperone from dopamine D4 receptor (unknown origin) expressed in HEK293 cell membranes
T1 sequence (P21917 whole entry): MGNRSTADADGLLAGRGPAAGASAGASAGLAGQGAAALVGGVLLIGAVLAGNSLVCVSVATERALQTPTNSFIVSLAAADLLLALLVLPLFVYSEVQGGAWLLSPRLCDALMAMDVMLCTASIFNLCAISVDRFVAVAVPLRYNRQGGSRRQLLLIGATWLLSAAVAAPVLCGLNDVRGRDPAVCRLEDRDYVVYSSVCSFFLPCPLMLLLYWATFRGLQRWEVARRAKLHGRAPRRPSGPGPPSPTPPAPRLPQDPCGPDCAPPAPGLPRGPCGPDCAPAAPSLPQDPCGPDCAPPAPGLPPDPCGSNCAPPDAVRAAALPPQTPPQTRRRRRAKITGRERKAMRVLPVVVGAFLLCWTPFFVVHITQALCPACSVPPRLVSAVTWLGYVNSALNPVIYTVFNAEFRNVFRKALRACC

D(3) dopamine receptor = D(3) dopamine receptor (Homo sapiens, UniProt P35462); experiment: Displacement of [3H]-N-methylspiperone from dopamine D3 receptor (unknown origin) expressed in HEK293 cell membranes
Chain of D(3) dopamine receptor (P35462 whole entry): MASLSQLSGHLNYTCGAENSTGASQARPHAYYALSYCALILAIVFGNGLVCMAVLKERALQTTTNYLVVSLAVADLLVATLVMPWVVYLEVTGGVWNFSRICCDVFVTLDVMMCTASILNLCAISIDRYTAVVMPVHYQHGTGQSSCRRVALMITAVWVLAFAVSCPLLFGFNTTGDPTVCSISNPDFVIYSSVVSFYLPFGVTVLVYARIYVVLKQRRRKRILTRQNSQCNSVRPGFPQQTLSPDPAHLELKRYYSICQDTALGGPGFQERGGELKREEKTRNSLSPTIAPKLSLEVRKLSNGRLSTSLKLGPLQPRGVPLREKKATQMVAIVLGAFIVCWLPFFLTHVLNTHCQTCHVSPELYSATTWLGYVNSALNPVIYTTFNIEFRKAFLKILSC

[1] = target: T2, 5-hydroxytryptamine receptor 1A (Homo sapiens, UniProt P08908); experiment: Displacement of [3H]-Way100635 from 5HT1A (unknown origin) expressed in CHO cell membranes
T2 sequence (P08908 whole entry): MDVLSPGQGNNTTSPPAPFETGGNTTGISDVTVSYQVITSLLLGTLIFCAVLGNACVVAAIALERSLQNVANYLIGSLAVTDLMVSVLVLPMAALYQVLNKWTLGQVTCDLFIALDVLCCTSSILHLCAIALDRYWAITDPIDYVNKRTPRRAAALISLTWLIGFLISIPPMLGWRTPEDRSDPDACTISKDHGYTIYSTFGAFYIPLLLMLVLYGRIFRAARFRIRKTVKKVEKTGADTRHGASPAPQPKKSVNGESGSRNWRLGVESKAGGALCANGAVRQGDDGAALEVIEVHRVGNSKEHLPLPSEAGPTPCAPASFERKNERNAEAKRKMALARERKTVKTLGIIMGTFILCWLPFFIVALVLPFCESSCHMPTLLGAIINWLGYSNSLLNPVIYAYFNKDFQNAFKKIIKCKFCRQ

Ki (D(4) dopamine receptor): 6.5 nM | Ki (D(3) dopamine receptor): 3 nM | Ki [1]: 1.2 nM
SMILES: COc1cc2c(cc1OC)C(=O)N(CCCCN1CCN(c3ccccn3)CC1)CCC2
